# Reference: patent US20240091254A1, “WNT AGONISTS FOR PREVENTION OF CANCER” (ACADEMISH MEDISCH CENTRUM, priority 2021, published 2024)
# B1: Notum: Wnt antagonist Palmitoleoyl-Protein Carboxylesterase, as overexpression CM or recombinant protein (protein, UniProt Q6P988 20-496, looked up)
# Palmitoleoyl-protein …: SEGRKTWRRRGQQPPPPPRTEAAPAAGQPVESFPLDFTAVEGNMDSFMAQVKSLAQSLYPCSAQQLNEDLRLHLLLNTSVTCNDGSPAGYYLKESRGSRRWLLFLEGGWYCFNRENCDSRYDTMRRLMSSRDWPRTRTGTGILSSQPEENPYWWNANMVFIPYCSSDVWSGASSKSEKNEYAFMGALIIQEVVRELLGRGLSGAKVLLLAGSSAGGTGVLLNVDRVAEQLEKLGYPAIQVRGLADSGWFLDNKQYRHTDCVDTITCAPTEAIRRGIRYWNGVVPERCRRQFQEGEEWNCFFGYKVYPTLRCPVFVVQWLFDEAQLTVDNVHLTGQPVQEGLRLYIQNLGRELRHTLKDVPASFAPACLSHEIIIRSHWTDVQVKGTSLPRALHCWDRSLHDSHKASKTPLKGCPVHLVDSCPWPHCNPSCPTVRDQFTGQEMNVAQFLMHMGFDMQTVAQPQGLEPSELLGMLSNGS
# B2: Dkk2: Wnt antagonist Dickkopf-related protein 2, as overexpression CM or recombinant protein (protein, UniProt Q9UBU2 34-259, looked up)
# Dickkopf-related protein 2: KLNSIKSSLGGETPGQAANRSAGMYQGLAFGGSKKGKNLGQAYPCSSDKECEVGRYCHSPHQGSSACMVCRRKKKRCHRDGMCCPSTRCNNGICIPVTESILTPHIPALDGTRHRDRNHGHYSNHDLGWQNLGRPHTKMSHIKGHEGDPCLRSSDCIEGFCCARHFWTKICKPVLHQGEVCTKQRKKGSHGLEIFQRCDCAKGLSCKVWKDATYSSKARLHVCQKI
# Assays:
# [1] = tested on: Wnt pathway (TOP-GFP reporter); assay: TOP-GFP Wnt reporter assay in MEFs; format: cell-based, mouse
# Method: Mouse embryonic fibroblasts (MEFs, ATCC) and HEK293T (ATCC) cells were both cultured in Dulbecco's Modified Eagle's Medium (DMEM) supplemented with 10% fetal calf serum (FCS), 1% Glutamine, and antibiotic penicillin and streptomycin. Cells were maintained at 37° C. in humidified air containing 5% CO2. All cell lines were routinely checked for mycoplasm contamination, no cell line authentication was performed.
# Mouse embryonic fibroblasts (MEFs) were cultured in Dulbecco's Modified Eagle's Medium (DMEM) supplemented with 10% fetal calf serum (FCS), 1% Glutamine, and antibiotic penicillin and streptomycin. MEFs were stably transduced with Wnt reporter TOP-GFP (Addgene plasmid #35491). For TOP-GFP assays, cells were stimulated with Wnt3A conditioned medium for 24 hours after which GFP positivity was measured by flow cytometry.
# WT organoids = assay: Murine WT intestinal organoids incubated with conditioned medium or recombinant Wnt antagonists (expansion, clonogenicity); format: cell-based, mouse; conditions: for Expansion and clonogenicity of WT organoids: overexpression CM or recombinant protein: NOTUM 2 μg/mL, WIF1 5 μg/mL, DKK2 1 μg/mL
# Method: Murine intestinal crypts were isolated from Lgr5-EGFP-IRES-Cre^ERT2, Lgr5-EGFP-IRES-Cre^ERT2;Ape/or Villin-Cre^ERT2;Apc^fl/fl mice as described by Sato et al.^35. In short, intestines were removed from the mouse and washed thoroughly with ice-cold PBS. Next, the intestine was opened longitudinally and the villi were gently scraped off by a glass cover slide. The intestine was cut into pieces of 5×5 mm and incubated in 2 mM EDTA solution for 30 min. at 4° C. After removal of the EDTA, the crypts were resuspended in ice-cold 1% FCS in PBS by vigorously shaking the tube and passing the supernatant through a 70 µm strainer. Isolated crypts were resuspended in Matrigel® (Corning) and seeded in pre-heated 24-well plates, supplemented with basal organoid medium consisting of advanced DMEM/F12 medium (Gibco) containing 100× N2 and 50× B27 supplements, 100× Glutamax, 5 mM HEPES, 1 mM N-acetyl-L-cysteine (Sigma), and 100× antibiotic/antimycotic (all Gibco). The basal organoid medium was freshly supplemented with the following growth factors: mouse EGF 50 ng/ml (TEBU-BIO), R-spondin (conditioned medium), Noggin (conditioned medium). The first two days after crypt isolation CHIR99021 (Axon Medchem) and ROCK inhibitor (Sigma) was added to the medium. Ctnnb1^S organoids expressing a constitutive active variant of β-catenin were generated as described by Adam et al.^36. For in vitro recombination of loxP flanked alleles, 1 μM 40H-Tamoxifen (Sigma) was added to the medium. Recombination of the Apc gene was validated by digital droplet PCR (Bio-Rad) using EvaGreen® Supermix (Bio-Rad). Lgr5-EGFP-IRES-Cre^ERT2 organoids, referred to as wild type (WT) organoids, were stably transduced with a red fluorescent mCherry construct (LeGO-C2, Addgene #27399). The in vitro recombined Lgr5-EGFP-IRES-Cre^ERT2;Apc^fl/fl, referred to as Apc^−/−, were stably transduced with a green fluorescent Venus construct (LeGO-V2, Addgene #27340). During competition assays, organoids were plated in equal numbers in 24-well plates and full wells were scanned over time by the EVOS FL Cell Imaging System (Thermo Scientific). Conditioned medium (CM) was taken from 2-3 day old WT or Apc^−/− organoid cultures and freshly supplemented with growth factors R-spondin, Noggin and mEGF. During the competition assays the medium (normal and conditioned) was replaced every other day to minimize effects of medium depletion. To assess the effect of medium depletion, CM was 10× concentrated using 10 kDa Amicon® centrifugal filters (Millipore) and added to fresh ENR medium as 1:10. […] Recombinant proteins NOTUM (2 μg/mL, R&D, 9150-NO-050), WIF1 (5 μg/mL, R&D, 135-WF-050) and DKK2 (1 μg/mL, R&D, 2435-DKB-010) were freshly added to the culture medium, medium was refreshed every other day.
molecule,measurement,setting,value
"O=C([O-])[O-].[Li+].[Li+] [Li2CO3, lithium carbonate]","Wnt signalling activation in Wnt reporter assay, Li2CO3 compared with LiCl",[1]; comparable concentrations (5 or 10 mM),activated the same amount of Wnt signalling
Cn1c(=O)c2c(ncn2C)n(C)c1=O [caffeine],Rescue of Notum-mediated inhibition of Wnt signalling in Wnt reporter assay,[1]; 200 μM caffeine,can rescue inhibition of Wnt singalling in vitro
same,Clonogenic capacity of wild type intestinal organoids with Apc-mutant CM,"WT organoids; Apc-mutant CM containing Notum, 200 μM caffeine",rescue in clonogenic capacity
same,"Clonogenic capacity of organoids with CM of Apc-mutant, Notum KO organoids","WT organoids; Apc-mutant Notum KO CM, 200 μM caffeine",no effect
Cc1c[nH]c(-c2cnc(NCCNc3ccc(C#N)cn3)nc2-c2ccc(Cl)cc2Cl)n1 [CHIR99021],Effect on Apc-/- CM reduction of Wnt3a mediated Wnt activation (TOP-GFP),"[1]; MEFs, TOP-GFP reporter, 2.5 μM CHIR99021",completely abrogated this effect
same,Resistance to Apc-/- CM induced reduction in proliferation and clonogenicity,"WT organoids; WT organoids, Apc-/- CM, 2.5 μM CHIR",resistant to the Apc^−/− CM induced reduction in proliferation and clonogenicity
"Wif1: Wnt antagonist Wnt inhibitory factor 1, as overexpression CM or recombinant protein",Expansion and clonogenicity of WT organoids,WT organoids,ability to reduce expansion and clonogenicity of WT organoids
B1,Expansion and clonogenicity of WT organoids,WT organoids,ability to reduce expansion and clonogenicity of WT organoids
B2,Expansion and clonogenicity of WT organoids,WT organoids,ability to reduce expansion and clonogenicity of WT organoids
